In patent publication US20250340543A1, “GPR84 ANTAGONISTS AND USES THEREOF” (Liminal BioSciences Limited, priority 2021, published 2025):

These molecules were tested against GPR84 (Homo sapiens (Human), UniProt Q9NQS5) (assay: Gai biosensor BRET assay (GPR84-mediated activation of Gai, antagonist mode against agonist ZQ-16)). Details: HEK293 cells, 200 nmol/L GPR84 agonist ZQ-16, read-out: hGPR84 IC50.
Type: cell-based
From the text: Background—The following assays can be used for determination of GPR84 activation in living HEK293 cells. […] The Gai biosensor consists of a Rluc8-tagged Gαi2 subunit, a GFP10-tagged Gγ2 subunit, and an untagged Gβ1. […] Moreover, signaling functions of GPCRs are tightly regulated by endocytosis, the targeting of receptors to endosomes and their sorting to lysosomes or recycling to the plasma membrane. […] Agonist stimulation of GPR84—Rluc8 leads to trafficking of the receptor to EEs, and ensuing increase of the donor concentration relative to the rGFP-FYVE acceptor anchored in the same cellular compartment, and thus results in an increase in BRET signal.
Plasmids—The cDNA clones for human GPR84 receptor, human Gαi2, Gβ1, and Gγ2 were obtained from the cDNA Resource Center (www.cdna.org). GFP10 (F64L, S147P, S202F and H231L variant of Aequorea victoria Green Fluorescent Protein) gBlocks gene fragments (Integrated DNA Technologies, IA) and linker were inserted in frame at the N-terminus of human Gγ2. Rluc8 (A55T, C124A, S130A, K136R, A143M, M185V, M253L, and S287L variant of the Renilla renformis luciferase) gBlocks gene fragment was inserted with linkers in frame in between residues 91 and 92 of Gαi2 or at the C-terminus of GPR84. The FYVE domain from human endofin (residues Q739 to K806) attached in frame at the C terminus of a humanized Renilla GFP (rGFP), were synthesized as gBlocks gene fragments.
Bioluminescence Resonance Energy Transfer (BRET) Measurement—HEK293 cells were transfected with GPR84—Rluc8 and rGFP-FYVE for the EEs trafficking biosensor or with GPR84, Gαi2—Rluc8, GFP10-Gγ2, and Gβ1 for the Gai biosensor. The following day, transiently transfected cells were seeded in 96-well white clear bottom microplates coated with poly-D-lysine and left in culture for 24 hours. Cells were washed once with Tyrode's buffer (140 mmol/L NaCl, 1 mmol/L CaCl2, 2.7 mmol/L KCl, 0.49 mmol/L MgCl2, 0.37 mmol/L NaH2PO4, 5.6 mmol/L glucose, 12 mmol/L NaHCO3, and 25 mmol/L HEPES, pH 7.5) before performing assays in Tyrode's buffer. Test compounds were incubated with cells for 5 (Gai) or 15 (EEs) minutes at 37° C. before addition of 200 nmol/L of the GPR84 agonist ZQ-16 (2-(Hexylthio)-6-hydroxy-4(3H)-pyrimidinone) for 5 minutes at room temperature (Gai) or 30 minutes at 37° C. (EEs). The Rluc8 substrate coelenterazine 400A (Prolume, Lakeside, AZ) was added at a final concentration of […] and BRET readings were collected using an Infinite M1000 microplate reader (Tecan, Morrisville, NC). BRET^2 readings between Rluc8 and GFP10 or rGFP were collected by sequential integration of the signals detected in the 370 to 450 nm (Rluc8) and 510 to 540 nm (GFP10, rGFP) windows. The BRET signal was calculated as the ratio of light emitted by acceptor (GFP10, rGFP) over the light emitted by donor (Rluc8). The values were corrected to net BRET by subtracting the background BRET signal obtained in cells transfected with Rluc8 constructs alone. Ligand-promoted net BRET values were calculated by subtracting vehicle-induced net BRET from ligand-induced net BRET.

GPR84, sequence (Q9NQS5 whole entry): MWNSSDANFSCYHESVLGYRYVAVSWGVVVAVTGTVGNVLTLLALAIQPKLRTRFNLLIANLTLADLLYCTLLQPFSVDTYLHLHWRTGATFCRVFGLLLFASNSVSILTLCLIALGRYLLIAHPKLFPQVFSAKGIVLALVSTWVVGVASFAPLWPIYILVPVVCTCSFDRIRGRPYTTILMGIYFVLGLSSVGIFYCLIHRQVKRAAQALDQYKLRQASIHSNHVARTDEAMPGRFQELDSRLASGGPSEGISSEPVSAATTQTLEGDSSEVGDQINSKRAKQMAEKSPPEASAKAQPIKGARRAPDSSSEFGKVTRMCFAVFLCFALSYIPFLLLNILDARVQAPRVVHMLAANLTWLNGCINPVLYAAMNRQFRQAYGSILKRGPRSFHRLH

Row | SMILES | IC50 [µM]
1 | Cc1cc(OC[C@@H]2COCCO2)cc(=O)n1[C@H](C)c1ccc(C#CC2CC2)cc1 [Compound I-396] | < 5
2 | Cc1cc(OCc2cn(C)nn2)cc(=O)n1[C@H](C)c1ccc(C#CC2CC2)cc1 [Compound I-357] | < 5
3 | COc1cc(OCC2COCCO2)cc(-c2ccc(-c3ccc(C)nc3)cc2)n1 (stereo not shown) [Compound I-51] | > 25
4 | COc1cccnc1COc1cc(C)n([C@H](C)c2ccc(C#CC3CC3)cc2)c(=O)c1 [Compound I-318] | < 5
5 | Cc1cc(OCc2ccccn2)ccc1-c1cc(OCC2COCCO2)cc(Cl)n1 (stereo not shown) [Compound I-58] | > 12.5
6 | Cc1cc(OCc2ncccn2)cc(=O)n1C(C)c1ccc(C#CC2CC2)c(F)c1 (stereo not shown) [Compound I-273] | < 5
7 | Cc1cc(OCc2ncccc2F)cc(=O)n1[C@H](C)c1ccc(C#CC2CC2)cc1 [Compound I-278] | < 5

Same assay, conditions: compound tested at 1 μM (concentration code A*)

Row | SMILES | inhibition at 1 µM [%]
8 | O=C(NCC1CCCO1)N1Cc2ccc(C#CC3CC3)cc2C1 (stereo not shown) [Compound I-184] | < 25

Same assay, conditions: compound tested at 2 μM (concentration code A)

Row | SMILES | inhibition at 2 µM [%]
9 | Cc1cc(OCc2cn(C)nn2)cc(=O)n1[C@H](C)c1ccc(C#CC2CC2)cc1 [Compound I-357] | > 75
10 | Cc1cc(OCc2ncccc2F)cc(=O)n1[C@H](C)c1ccc(C#CC2CC2)cc1 [Compound I-278] | > 75

Same assay, conditions: compound tested at 5 μM (concentration code C)

Row | SMILES | inhibition at 5 µM [%]
11 | COc1ccc2c(-c3ccc(C#CC4CC4)cc3)nnn2c1 [Compound I-215] | < 25
12 | COc1cc(OCC2COCCO2)cc(-c2ccc(OCC(F)(F)F)cc2)c1 (stereo not shown) [Compound I-166] | < 25

Same assay, conditions: compound tested at 10 μM (concentration code D)

Row | SMILES | inhibition at 10 µM [%]
13 | Cc1cc(OCc2ncccn2)cc(=O)n1[C@H](C)c1ccc(Cl)cc1 [Compound I-304] | < 25
14 | COCC#Cc1ccc([C@@H](C)n2c(C)cc(OCC3CCOCC3)cc2=O)cc1 (stereo in doubt) [Compound I-83] | < 25
15 | Cc1cc(OC[C@@H]2CCCCO2)cc(=O)n1[C@H](C)c1ccc(C#CC2CC2)cc1 (stereo in doubt) [Compound I-144] | > 75
16 | CCC(c1ccc(C#CC2CC2)cc1)n1c(C)cc(OCC2COCCO2)cc1=O (stereo not shown) [Compound I-21] | 50 to 75
17 | Cc1cc(OCc2ncccn2)cc(=O)n1[C@H](C)c1ccc(N2CC(C)(C)C2)cc1 [Compound I-235] | < 25
18 | Cc1cc(OCC2COCCO2)cc(=O)n1C(C)c1cc(C#CC2CC2)cs1 (stereo not shown) [Compound I-221] | 25 to 50
19 | CCCOc1ccc(C(C)n2c(C)cc(OCc3ncccn3)cc2=O)cc1 (stereo not shown) [Compound I-343] | < 25
20 | Cc1cc(OCC(F)(F)F)ccc1-c1cncc(OCC2CCCCO2)c1 (stereo not shown) [Compound I-56] | 25 to 50
21 | CC(c1ccc(C#CC2CC2)cc1)n1ccc(OCC2COCCO2)cc1=O (stereo not shown) [Compound I-13] | > 75
22 | Cc1cc(OCc2ncccn2)cc(=O)n1[C@H](C)c1ccc(-c2cnc(C3CC3)nc2)cc1 [Compound I-347] | < 25
23 | CNC(=O)c1ccc([C@@H](C)n2c(C)cc(OCc3ncccn3)cc2=O)cc1 [Compound I-316] | < 25
24 | Cc1cc(OCc2ncccn2)cc(=O)n1C(C)c1ccc(C#CC2CC2)cn1 (stereo not shown) [Compound I-253] | 50 to 75
25 | Cc1cc(OCC2CCOCC2)cc(=O)n1[C@H](C)c1ccc(C#CC2CC2)cc1 (stereo in doubt) [Compound I-20] | 50 to 75
26 | Cc1cc(OCc2ncccn2)cc(=O)n1[C@H](C)c1ccccc1 [Compound I-300] | < 25
27 | Cc1cc(C#CC2CC2)ccc1C(C)n1c(C)cc(OCC2COCCO2)cc1=O (stereo not shown) [Compound I-100] | < 25
28 | Cc1cc(OCc2ncccn2)cc(=O)n1C(C)c1ccc(C#CC2CC2)s1 (stereo not shown) [Compound I-292] | 25 to 50

Row | SMILES | inhibition at 10 µM [%]
29 | COc1cccnc1COc1cc(C)n([C@H](C)c2ccc(C#CC3CC3)cc2)c(=O)c1 [Compound I-318] | > 75
30 | Cc1cc(OC[C@@H]2COCCO2)cc(=O)n1Cc1cc(C#CC2CC2)ccn1 [Compound I-231] | < 25
31 | Cc1cc(OCC2CCCCO2)cc(=O)n1C(C)c1ccc(OCC(F)(F)F)cc1 (stereo not shown) [Compound I-274] | < 25
32 | COc1ccc([C@@H](C)n2c(C)cc(OCC3COCCO3)cc2=O)cc1 (stereo partly shown) [Compound I-218] | 25 to 50
33 | CC1(C)CN(c2cccc(Cn3ccc(OCc4ncccn4)cc3=O)c2)C1 [Compound I-248] | 25 to 50
34 | Cc1cc(OCC2COCCO2)cc(=O)n1C(C)c1ccc(C#CC2CC2)s1 (stereo not shown) [Compound I-220] | < 25
35 | Cc1cc(OCc2ncccn2)cc(=O)n1[C@H](C)c1ccc(C#CC2CC2)cc1F [Compound I-270] | < 25
36 | Cc1ccc([C@@H](C)n2c(C)cc(OCc3ncccn3)cc2=O)cc1 [Compound I-299] | < 25
37 | Cc1cc(OCC2COCCO2)cc(=O)n1-c1ccc(C#CC2CC2)cc1 (stereo not shown) [Compound I-225] | 25 to 50
38 | O=C(CC1CCCCO1)N1CCc2cc(C#CC3CC3)ccc2C1 (stereo not shown) [Compound I-187] | 25 to 50
39 | Cc1cc(OCc2cc(Cl)ccn2)cc(=O)n1[C@H](C)c1ccc(C#CC2CC2)cc1 [Compound I-306] | 25 to 50
40 | Cc1cc(OCc2ncccn2)cc(=O)n1[C@H](C)c1ccc(C#CCN2CC(C)(C)C2)cc1 [Compound I-259] | < 25
41 | Cc1cc(OCc2ncccn2)cc(=O)n1C(C)c1ccc(C#CC2CC2)c(F)c1 (stereo not shown) [Compound I-273] | > 75
42 | Cc1cc(OCC2COCCO2)cc(=O)n1Cc1cccc(C#CCNCc2ccccc2)c1 (stereo not shown) [Compound I-97] | < 25
43 | Cc1cc(OCC2COc3ncccc3O2)cc(=O)n1C(C)c1ccc(C#CC2CC2)cc1 (stereo not shown) [Compound I-106] | > 75
44 | Cc1cc(OCc2nccn2C(C)C)cc(=O)n1[C@H](C)c1ccc(C#CC2CC2)cc1 [Compound I-348] | > 75

Same assay, conditions: compound tested at 12.5 μM (concentration code E)

Row | SMILES | inhibition at 12.5 µM [%]
45 | COc1cc(OCC2COCCO2)cc(-c2ccc(OCc3ccccn3)cc2)n1 (stereo not shown) [Compound I-15] | < 25
46 | Cc1cc(OCc2ccccn2)ccc1-c1cc(OCC2COCCO2)cc(Cl)n1 (stereo not shown) [Compound I-58] | 25 to 50

Same assay, conditions: compound tested at 15 μM (concentration code F)

Row | SMILES | inhibition at 15 µM [%]
47 | Cc1cc(OCC2COCCO2)nc(OCc2ccc(C#CC3CC3)cc2)n1 (stereo not shown) [Compound I-85] | < 25

Same assay, conditions: compound tested at 25 μM (concentration code G)

Row | SMILES | inhibition at 25 µM [%]
48 | O=c1oc2ccc(-c3ccc(C#CC4CC4)cc3)cc2n1CC1CCCCO1 (stereo not shown) [Compound I-167] | < 25
49 | C(#CC1CC1)c1ccc(-c2cc(OCC3CCCCO3)ncn2)cc1 (stereo not shown) [Compound I-54] | < 25
50 | Cn1c(-c2ccc(OCC(F)(F)F)cc2)cc(OCC2COCCO2)nc1=O (stereo not shown) [Compound I-62] | < 25
51 | O=c1nc(OCC2COCCO2)cc(-c2ccc(OCC(F)(F)F)cc2)[nH]1 (stereo not shown) [Compound I-10] | < 25
52 | Cc1ccc(N2CCN(c3cc(OCC4COCCO4)nc(=O)n3C)CC2)cn1 (stereo not shown) [Compound I-86] | < 25
53 | Cc1nc(OCc2ccc(C#CC3CC3)cc2)cc(OCC2COCCO2)n1 (stereo not shown) [Compound I-92] | < 25
54 | COc1cc(OCC2COCCO2)cc(-c2ccc(-c3ccc(C)nc3)cc2)n1 (stereo not shown) [Compound I-51] | 25 to 50
55 | FC(F)(F)COc1ccc(-c2cc(OCC3COCCO3)cc(C3COC3)c2)cc1 (stereo not shown) [Compound I-163] | < 25
56 | Cc1cc(C#CC2CC2)ccc1Cn1c(C)cc(OCC2COCCO2)cc1=O (stereo not shown) [Compound I-101] | < 25
57 | Clc1cc(OCC2COCCO2)cc(-c2ccc(C#CCNc3ccccc3)cc2)n1 (stereo not shown) [Compound I-109] | < 25
58 | O=c1cc(OCC2COCCO2)cc(-c2ccc(C#CC3CC3)cc2)[nH]1 (stereo not shown) [Compound I-8] | < 25
59 | COc1cc(OCC2COCCO2)cc(-c2c(C)cc(OCc3ccccc3)cc2C)n1 (stereo not shown) [Compound I-125] | < 25
60 | Cc1cc(OCC2COCCO2)nc(=O)n1Cc1ccc(C#CC2CC2)cc1 (stereo not shown) [Compound I-38] | 25 to 50
61 | Cn1c(OCC2COCCO2)cc(-c2ccc(C#CC3CC3)cc2)nc1=O (stereo not shown) [Compound I-136] | < 25
62 | COc1cc(OCC2COCCO2)cc(-c2c(C)cc(OCc3ccccn3)cc2C)n1 (stereo not shown) [Compound I-46] | 25 to 50
63 | FC(F)(F)COc1ccc(-c2nc(OCC3COCCO3)cc3c2OCCO3)cc1 (stereo not shown) [Compound I-158] | < 25
64 | COc1cc(OC[C@H]2COCCO2)nc(-c2ccc(OCC(F)(F)F)cc2)c1C [Compound I-39] | 25 to 50
